Laboratory results published in patent publication US12275684B2, “Methods for making and using endoxifen” (Atossa Therapeutics, Inc., priority 2017, dated 2025).
Values joined by “and” are separate entries in the source; they are usually repeats but may differ in a detail not shown here. Identical values can stand only once. Like-named read-outs stand apart in the source and are kept apart here.

Experiment: Placebo controlled, dose escalation pharmacokinetic study of oral (Z)-Endoxifen capsules (serum endoxifen; incl. accumulation ratios and dose linearity)
Assay type: in vivo, human
Settings: for AUC(0-inf) / AUC(0-t) / Cmax / Tmax / Vd/F / concentration at 72 h / concentration at 120 h / concentration at 0.5 h / concentration at 1 h / concentration at 2 h / concentration at 3 h / concentration at 4 h / concentration at 5 h / concentration at 8 h / concentration at 10 h / concentration at 12 h / concentration at 24 h: female, human, serum, oral; for concentration at 72 h: Day 4 Hr 72; for concentration at 120 h: Day 6 Hr 120; for concentration at 0.5 h: Day 1 hr 0.5; for concentration at 1 h: Day 1 hr 1; for concentration at 2 h: Day 1 hr 2; for concentration at 3 h: Day 1 hr 3; for concentration at 4 h: Day 1 hr 4; for concentration at 5 h: Day 1 hr 5; for concentration at 8 h: Day 1 hr 8; for concentration at 10 h: Day 1 hr 10; for concentration at 12 h: Day 1 hr 12; for concentration at 24 h: Day 1 hr 24
Source text: An objective of the study was to assess the safety and tolerability of oral (Z)-Endoxifen when administered […] orally as a capsule to healthy female volunteers. A secondary objective was to assess the pharmacokinetics of multiple doses of oral (Z)-Endoxifen in the subjects.
Generally, healthy female volunteers aged ≥18 years and ≤65 years were enrolled. 24 participants were enrolled in 3 cohorts and will be administered study drug orally. Three dose levels of orally administered (Z)-Endoxifen were investigated in 3 cohorts. In each cohort participants were randomized to receive an oral (Z)-Endoxifen or placebo in a blinded fashion. Enteric-resistant capsules used in the study were designed as delayed release capsules to resist rupture for at least 30 minutes, but typically, for about 2 hours, under gastric conditions and then open fully in intestinal fluid (DRCaps; Capsugel, a Lonza Company, USA). Enteric-resistant (Swedish Orange size Zero (0); Capsugel, USA) DRCaps capsules manually filled with 1, 2 or 4 mg of (Z)-endoxifen neat in compliance with GMP requirements were used. Placebo capsules contained microcrystalline cellulose an inert common capsule and tablet excipient.
Each cohort enrolled 8 participants, with 6 participants receiving (Z)-Endoxifen 1 mg capsules orally at 1 mg (Cohort 1), 2 mg (Cohort 2) or 4 mg (Cohort 3) doses and 2 participants receiving matching placebo capsules. In Cohort 1 (Dose Level=1 mg) two participants (sentinels) were dosed 24 hours prior to the remaining participants. One sentinel was dosed with (Z)-Endoxifen and the other with placebo. The remaining six participants in Cohort 1 were dosed as no safety concerns were identified in the sentinel participants. The non-sentinel participants in Cohort 1 were admitted to the clinical research facility at least one day later than the sentinels. There were no sentinels in Cohorts 2 and 3.
Participant engagement in this study was for a period of 56 days. These included a 28 day screening period, and a 7 day post treatment period for Pharmacokinetic (PK) sampling. There were two confinement periods, one at the beginning and one at the end of the dosing periods. Participants were confined to the clinical facility on Days-1 through to Day 2 and Days 21 and 22. If participants were to experience any clinically significant adverse events during the study, they would have been required to remain in the clinical facility for further observation at the discretion of the Principal Investigator (PI).
Healthy female volunteers were screened within 28 days prior to commencement of dosing. Participants were admitted to the clinical facility on Day-1 for up to 3 days. The first dose of (Z)-Endoxifen or placebo capsules was administered on Day 1. Following completion of all safety assessments and sampling for PK analyses, participants were discharged from the clinical facility on Day 2. The first dose on Day 1 was followed by a 6-day treatment free period (Days 2-7). Each participant returned to the clinical facility for PK blood draws and safety assessments during the treatment free period on study Days 4 and 6. On Day 8 participants commenced daily administration of (Z)-Endoxifen capsules or placebo capsules for 14 consecutive days (Days 8-21). Participants were supplied with study drug capsules and asked to self administer daily. Participants visited the clinical facility on Days 11, 14 and 17, prior to dose administration, for PK blood draws and safety assessments. On the morning of Day 21 each participant returned to the clinical facility prior to dose administration and were confined to the facility until Day 22 to allow for the collection of PK blood draws and safety assessments. The Day 21 dose was the last administration of study drug. Participants were discharged from the clinical facility on Day 22 and returned for PK blood draws and safety assessments on study Days 24, 26, and 28. […]

[1] = 1 mg, read-out: Serum concentration, GeoMean
[2] = 1 mg, read-out: Serum concentration, Max
[3] = 1 mg, read-out: Serum concentration, Mean
[4] = 1 mg, read-out: Serum concentration, Median
[5] = 1 mg, read-out: Serum concentration, Min

Time to maximum serum endoxifen levels (FIG. 3 and FIG. 4): about 10 hours
Mean Ratio AUC24 hr(Day 21)/AUC0-inf(Day 1) (dose 1 mg (n = 5)): 0.81 (SD 0.20)
Mean Ratio AUC24 hr(Day 21)/AUC24 hr(Day 1) (dose 1 mg (n = 5)): 3.09 (SD 1.49)
Mean Ratio Cmax(Day 21)/Cmax(Day 1) (dose 1 mg (n = 5)): 2.74 (SD 1.29)
Mean Ratio AUC24 hr(Day 21)/AUC0-inf(Day 1) (dose 2 mg (n = 6)): 0.85 (SD 0.20)
Mean Ratio AUC24 hr(Day 21)/AUC24 hr(Day 1) (dose 2 mg (n = 6)): 3.04 (SD 0.79)
Mean Ratio Cmax(Day 21)/Cmax(Day 1) (dose 2 mg (n = 6)): 2.92 (SD 0.88)
Mean Ratio AUC24 hr(Day 21)/AUC0-inf(Day 1) (dose 4 mg (n = 6)): 1.08 (SD 0.38)
Mean Ratio AUC24 hr(Day 21)/AUC24 hr(Day 1) (dose 4 mg (n = 6)): 3.47 (SD 1.08)
Mean Ratio Cmax(Day 21)/Cmax(Day 1) (dose 4 mg (n = 6)): 3.56 (SD 1.01)
AUC(0-inf) (1 mg, Day 1, 1 mg, N = 5, read-out: AUC0-inf, GeoMean): 0.559 µg·h/mL
AUC(0-inf) (1 mg, Day 1, 1 mg, N = 5, read-out: AUC0-inf, Mean): 0.567 µg·h/mL
AUC(0-inf) (1 mg, Day 1, 1 mg, N = 5, read-out: AUC0-inf, Median): 0.534 µg·h/mL
AUC(0-t) (1 mg, Day 1, 1 mg, N = 5, read-out: AUC24hr, GeoMean): 0.155 µg·h/mL
AUC(0-t) (1 mg, Day 1, 1 mg, N = 5, read-out: AUC24hr, Mean): 0.158 µg·h/mL
AUC(0-t) (1 mg, Day 1, 1 mg, N = 5, read-out: AUC24hr, Median): 0.171 µg·h/mL
AUC(0-t) (1 mg, Day 1, 1 mg, N = 5, read-out: AUCTlast, GeoMean): 0.466 µg·h/mL
AUC(0-t) (1 mg, Day 1, 1 mg, N = 5, read-out: AUCTlast, Mean): 0.471 µg·h/mL
AUC(0-t) (1 mg, Day 1, 1 mg, N = 5, read-out: AUCTlast, Median): 0.472 µg·h/mL
Cmax (1 mg, Day 1, 1 mg, N = 5, read-out: Cmax, GeoMean): 0.0095 µg/mL
Cmax (1 mg, Day 1, 1 mg, N = 5, read-out: Cmax, Mean): 0.0096 µg/mL
Cmax (1 mg, Day 1, 1 mg, N = 5, read-out: Cmax, Median): 0.01 µg/mL
Tmax (1 mg, Day 1, 1 mg, N = 5, read-out: Tmax, GeoMean): 5.11 h
Tmax (1 mg, Day 1, 1 mg, N = 5, read-out: Tmax, Mean): 5.62 h
Tmax (1 mg, Day 1, 1 mg, N = 5, read-out: Tmax, Median): 6 h
Vd/F (1 mg, Day 1, 1 mg, N = 5, read-out: Vz/F, GeoMean): 118 L
Vd/F (1 mg, Day 1, 1 mg, N = 5, read-out: Vz/F, Mean): 120 L
Vd/F (1 mg, Day 1, 1 mg, N = 5, read-out: Vz/F, Median): 108 L
AUC(0-t) (1 mg, Day 21, 1 mg, N = 5, read-out: AUC24hr, GeoMean): 0.431 µg·h/mL
AUC(0-t) (1 mg, Day 21, 1 mg, N = 5, read-out: AUC24hr, Mean): 0.458 µg·h/mL
AUC(0-t) (1 mg, Day 21, 1 mg, N = 5, read-out: AUC24hr, Median): 0.527 µg·h/mL
Cmax (1 mg, Day 21, 1 mg, N = 5, read-out: Cmax, GeoMean): 0.0233 µg/mL
Cmax (1 mg, Day 21, 1 mg, N = 5, read-out: Cmax, Mean): 0.0246 µg/mL
Cmax (1 mg, Day 21, 1 mg, N = 5, read-out: Cmax, Median): 0.029 µg/mL
Tmax (1 mg, Day 21, 1 mg, N = 5, read-out: Tmax, GeoMean): 6.64 h
Tmax (1 mg, Day 21, 1 mg, N = 5, read-out: Tmax, Mean): 6.88 h
Tmax (1 mg, Day 21, 1 mg, N = 5, read-out: Tmax, Median): 8 h
Vd/F (1 mg, Day 21, 1 mg, N = 5, read-out: Vz/F, GeoMean): 173 L
Vd/F (1 mg, Day 21, 1 mg, N = 5, read-out: Vz/F, Mean): 181 L
Vd/F (1 mg, Day 21, 1 mg, N = 5, read-out: Vz/F, Median): 170 L
concentration at 72 h [1]: 0.00784 µM
concentration at 72 h [2]: 0.0107 µM
concentration at 72 h [3]: 0.00803 µM
concentration at 72 h [4]: 0.00803 µM
concentration at 72 h [5]: 0.00535 µM
concentration at 120 h [1]: 0.00353 µM
concentration at 120 h [2]: 0.00535 µM
concentration at 120 h [3]: 0.00375 µM
concentration at 120 h [4]: 0.00268 µM
concentration at 120 h [5]: 0.00268 µM
concentration at 0.5 h [1]: 0.00318 µM
concentration at 0.5 h [2]: 0.00535 µM
concentration at 0.5 h [3]: 0.00268 µM
concentration at 0.5 h [4]: 0.00268 µM
concentration at 0.5 h [5]: 0 µM
concentration at 1 h [1]: 0.00333 µM
concentration at 1 h [2]: 0.00803 µM
concentration at 1 h [3]: 0.00375 µM
concentration at 1 h [4]: 0.00268 µM
concentration at 1 h [5]: 0.00268 µM
concentration at 2 h [1]: 0.017 µM
concentration at 2 h [2]: 0.0187 µM
concentration at 2 h [3]: 0.0171 µM
concentration at 2 h [4]: 0.0187 µM
concentration at 2 h [5]: 0.0134 µM
concentration at 3 h [1]: 0.0171 µM
concentration at 3 h [2]: 0.0187 µM
concentration at 3 h [3]: 0.0171 µM
concentration at 3 h [4]: 0.0161 µM
concentration at 3 h [5]: 0.0161 µM
concentration at 4 h [1]: 0.0201 µM
concentration at 4 h [2]: 0.0268 µM
concentration at 4 h [3]: 0.0203 µM
concentration at 4 h [4]: 0.0187 µM
concentration at 4 h [5]: 0.0187 µM
concentration at 5 h [1]: 0.0232 µM
concentration at 5 h [2]: 0.0268 µM
concentration at 5 h [3]: 0.0236 µM
concentration at 5 h [4]: 0.0241 µM
concentration at 5 h [5]: 0.0161 µM
concentration at 8 h [1]: 0.0211 µM
concentration at 8 h [2]: 0.0321 µM
concentration at 8 h [3]: 0.022 µM
concentration at 8 h [4]: 0.0214 µM
concentration at 8 h [5]: 0.0134 µM
concentration at 10 h [1]: 0.0216 µM
concentration at 10 h [2]: 0.0321 µM
concentration at 10 h [3]: 0.0225 µM
concentration at 10 h [4]: 0.0214 µM
concentration at 10 h [5]: 0.0134 µM
concentration at 12 h [1]: 0.0171 µM
concentration at 12 h [2]: 0.0214 µM
concentration at 12 h [3]: 0.0182 µM
concentration at 12 h [4]: 0.0214 µM
concentration at 12 h [5]: 0.00803 µM
concentration at 24 h [1]: 0.0147 µM
concentration at 24 h [2]: 0.0187 µM
concentration at 24 h [3]: 0.015 µM
concentration at 24 h [4]: 0.0161 µM
concentration at 24 h [5]: 0.0107 µM
AUC(0-inf) (2 mg, Day 1, 2 mg, N 6, read-out: AUC0-inf, GeoMean): 1.08 µg·h/mL
SMILES: CC/C(=C(\c1ccc(O)cc1)c1ccc(OCCNC)cc1)c1ccccc1 [(Z)-Endoxifen, (Z)-4-(1-(4-(2-(methylamino)ethoxy)phenyl)-2-phenylbut-1-enyl) phenol]
AUC(0-inf), individual subjects (Dose: 2 mg oral, Day 1): 1.188 µg·h/mL and 0.755 µg·h/mL and 0.954 µg·h/mL and 1.242 µg·h/mL and 1.489 µg·h/mL
AUC(0-inf), individual subjects (Dose: 4 mg oral, Day 1): 1.098 µg·h/mL and 1.642 µg·h/mL and 0.736 µg·h/mL and 1.883 µg·h/mL and 2.116 µg·h/mL and 4.624 µg·h/mL
dose response of Cmax and AUC24hr (across the three dose levels, once daily oral): dose-proportionality (linear dose response)
